Structures can show the parent of a compound that is named as a salt.
tested on: not given; experiment: not given; settings: not given

| SMILES | melting point [°C] |
| --- | --- |
| CCCc1ccc(-c2ccc(N(CC3(N)CCOCC3)C(=O)[C@@H]3C[C@H]3c3ccccn3)cc2)cc1 (relative stereo) (as salt: hydrochloride) [Example 9, Trans-2-Pyridin-2-yl-cyclopropanecarboxylic acid (4-amino-tetrahydro-pyran-4-ylmethyl)-(4′-propyl-biphenyl-4-yl)-amide] | 180 to 183 |

biological target: G protein-coupled receptor 88 (Homo sapiens, UniProt Q9GZN0); experiment: GPR88 functional assay for the Table 2 EC50 values (GTPγS assay and cAMP HTRF assay described; table does not say which); format: cell-based; settings: class symbol X; read-out: Range (EC50)
Sequence (Q9GZN0 whole entry, species assumed): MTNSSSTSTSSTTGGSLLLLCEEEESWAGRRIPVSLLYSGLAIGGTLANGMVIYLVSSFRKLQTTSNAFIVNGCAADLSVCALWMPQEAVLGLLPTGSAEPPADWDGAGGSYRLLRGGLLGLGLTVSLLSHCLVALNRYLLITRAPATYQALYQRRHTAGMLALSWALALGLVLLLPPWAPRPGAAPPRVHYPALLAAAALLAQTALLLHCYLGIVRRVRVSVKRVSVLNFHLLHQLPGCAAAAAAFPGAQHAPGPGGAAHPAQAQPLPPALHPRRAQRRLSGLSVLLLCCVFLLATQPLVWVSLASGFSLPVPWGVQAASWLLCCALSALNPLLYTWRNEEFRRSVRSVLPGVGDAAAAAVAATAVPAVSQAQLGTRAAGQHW
Description: 96 well GTPγS assay plates were purchased from Perkin Elmer. Wheat Germ Agglutinin PVT SPA beads and […] were purchased from Amersham GDP, GTPγS and all buffer reagents were from Sigma. 384 well white NBS plates were purchased from corning. Pertussis toxin was purchased from Calbiochem. All cell culture reagents were purchased from Invitrogen. Forskolin was purchased from Sigma. The cAMP HTRF kit was purchased from Cisbio International.
The GTPγS assay buffer consisted of 10 mM MgCl2, 180 mM NaCl, 200 uM GDP, 0.167 mg/ml DTT, 1 mM EGTA and 20 mM HEPES pH7.4. This buffer was used for dilution of membranes, beads, and ^35S GTPγS components. To each well of the 96 well assay plate 48 ul assay buffer, 2 ul of 100× compound, 50 ul membrane solution (0.2 ug/ul), 50 ul ^35S GTPγS solution (0.8 nM) and 50 ul of SPA beads (10 mg/ml). Non-specific binding was determined by the addition of cold GTPγS to control wells. The plates were sealed with clear sealing tape and incubated at room temperature for 1 hour. GTPγS activity was detected using a Wallac Micro-Beta Trilux liquid scintillation counter. Non-specific binding was determined using 10 uM cold GTPγS.
The cAMP HTRF assay is modified from the Cisbio International kit procedure 62AM4PEJ. Assay plates were prepared by stamping 0.1 ul of 100× compound stock solutions diluted in DMSO or DMSO alone into 384 well NBS plates. The cAMP HTRF assay was performed using cells in suspension. The cAMP HTRF assay buffer consisted of Hank's Balanced Salt Solution (HBSS), 2 mM CaCl2, 5 mM MgCl2, 20 mM HEPES and 1 mM 3-isobutyl-1-methylxanthine (IBMX) (added fresh at the time of assay). For pertussis toxin treatment pertussis toxin (100 ng/ml) was added to culture medium for 16 hours prior to assay. Confluent cells were disrupted with cell dissociation buffer count cells then centrifuged at 1000×g for 5 minutes. The cell pellet was resuspended in assay buffer alone for basal cAMP measurements or with 0.75 uM forskolin (added immediately prior to addition to wells) for addition to all other wells. Using a Multidrop 384 (Lab systems) 10 ul of cell suspension was added to each well containing compound or DMSO. The plates were incubated at room temperature for 30 minutes covered. During this time the cAMP standard curve was prepared as per manufacturer's instruction. At the end of the incubation 10 ul of anti-cAMP cryptate and 10 ul cAMP-XL, diluted in manufacturer's lysis buffer, were added to each well. The plated were incubated at room temperature for 60 minutes covered then read on an Envision plate reader (Perkin Elmer) and the 665 nm/620 nm fluorescence ratio determined Fluorescence ratio values were converted to molar cAMP concentrations from the standard curve using the GraphPad Prism program.

| SMILES | EC50 [nM] |
| --- | --- |
| CC[C@H](C)[C@H](N)CN(C(=O)[C@@H]1C[C@H]1c1ccccn1)c1ccc(-c2ccc(COC)cc2)cc1 [Example 1, (1R,2R)-2-Pyridin-2-yl-cyclopropanecarboxylic acid ((2S,3S)-2-amino-3-methyl-pentyl)-(4′-methoxymethyl-biphenyl-4-yl)-amide] | 3 to 20 |
| CCCc1ccc(-c2ccc(N(C[C@@H](N)[C@@H](C)OC)C(=O)[C@@H]3C[C@H]3c3cnccn3)cc2)cc1 [Example 18, Trans-2-pyrazin-2-yl-cyclopropanecarboxylic acid ((2R,3R)-2-amino-3-methoxy-butyl)-(4′-propyl-biphenyl-4-yl)-amide] | 3 to 20 |
| CC[C@H](C)[C@H](N)CN(C(=O)[C@H]1C[C@@H]1c1ccc(F)cn1)c1ccc(-c2ccc(COC)cc2)cc1 (stereo in doubt) [Example 4, (Trans)-2-(5-fluoro-pyridin-2-yl)-cyclopropanecarboxylic acid ((2S,3S)-2-amino-3-methyl-pentyl)-(4′-methoxymethyl-biphenyl-4-yl)-amide] | 3 to 20 |
| CC[C@H](C)[C@H](N)CN(C(=O)[C@@H]1C[C@H]1c1ccc(F)cn1)c1ccc(OCC2CCC2)cc1 [Example 17, (1R,2R)-2-(5-Fluoro-pyridin-2-yl)-cyclopropanecarboxylic acid ((2S,3S)-2-amino-3-methyl-pentyl)-(4-cyclobutylmethoxy-phenyl)-amide] | 3 to 20 |
| CCCc1ccc(-c2ccc(N(C[C@@H](N)[C@@H](C)CC)C(=O)[C@@H]3C[C@H]3c3cccc(F)n3)cc2)cc1 [Example 14, Trans-2-(6-fluoro-pyridin-2-yl)-cyclopropanecarboxylic acid ((2S,3S)-2-amino-3-methyl-pentyl)-(4′-propyl-biphenyl-4-yl)-amide] | 3 to 20 |
| CCCc1ccc(-c2ccc(N(C[C@@H](N)[C@@H](C)CC)C(=O)C3CC3c3cnccn3)cc2)cc1 (stereo partly drawn) [Example 11, (Trans)-2-pyrazin-2-yl-cyclopropanecarboxylic acid ((2S,3S)-2-amino-3-methyl-pentyl)-(4′-propyl-biphenyl-4-yl)-amide] | 3 to 20 |
| CC[C@H](C)[C@H](N)CN(C(=O)[C@@H]1C[C@H]1c1ccccn1)c1ccc(OCC2CCC2)cc1 [Example 13, (1R,2R)-2-Pyridin-2-yl-cyclopropanecarboxylic acid ((2S,3S)-2-amino-3-methyl-pentyl)-(4-cyclobutylmethoxy-phenyl)-amide] | 3 to 20 |
| CC(C)Oc1ccc(-c2ccc(N(CC3(N)CCCC3)C(=O)[C@@H]3C[C@H]3c3cccc(F)n3)cc2)cc1 (relative stereo) [Example 7, Trans-2-(6-fluoro-pyridin-2-yl)-cyclopropanecarboxylic acid (1-amino-cyclopentylmethyl)-(4′-isopropoxy-biphenyl-4-yl)-amide] | 3 to 20 |
| CC[C@H](C)[C@H](N)CN(C(=O)[C@@H]1C[C@H]1c1ccccn1)c1ccc(-c2ccc(OC(C)C)cc2)cc1 [Example 2, (1R,2R)-2-Pyridin-2-yl-cyclopropanecarboxylic acid ((2S,3S)-2-amino-3-methyl-pentyl)-(4′-isopropoxy-biphenyl-4-yl)-amide] | 3 to 20 |
| COCc1ccc(-c2ccc(N(CC3(N)CCCC3)C(=O)[C@@H]3C[C@H]3c3cccc(F)n3)cc2)cc1 (relative stereo) [Example 8, Trans-2-(6-fluoro-pyridin-2-yl)-cyclopropanecarboxylic acid (1-amino-cyclopentylmethyl)-(4′-methoxymethyl-biphenyl-4-yl)-amide] | 3 to 20 |
| CCCc1ccc(-c2ccc(N(CC3(N)CCOCC3)C(=O)[C@@H]3C[C@H]3c3ccccn3)cc2)cc1 (relative stereo) [Example 9, Trans-2-Pyridin-2-yl-cyclopropanecarboxylic acid (4-amino-tetrahydro-pyran-4-ylmethyl)-(4′-propyl-biphenyl-4-yl)-amide] | 3 to 20 |
| CCCc1ccc(-c2ccc(N(C[C@@H](N)[C@@H](C)CC)C(=O)[C@H]3C[C@@H]3c3ncccc3F)cc2)cc1 [Example 10] | 3 to 20 |
| CC#Cc1ccc(-c2ccc(N(C[C@@H](N)[C@@H](C)CC)C(=O)[C@@H]3C[C@H]3c3ccccn3)cc2)cc1 [Example 5, (1R,2R)-2-pyridin-2-yl-cyclopropanecarboxylic acid ((2S,3S)-2-amino-3-methyl-pentyl)-(4′-prop-1-ynyl-biphenyl-4-yl)-amide] | 3 to 20 |
| CCCc1ccc(-c2ccc(N(CC3(N)CCCC3)C(=O)[C@@H]3C[C@H]3c3cccc(F)n3)cc2)cc1 (relative stereo) [Example 6, Trans-2-(6-fluoro-pyridin-2-yl)-cyclopropanecarboxylic acid (1-amino-cyclopentylmethyl)-(4′-propyl-biphenyl-4-yl)-amide] | 3 to 20 |
| CCCC#Cc1ccc(N(C[C@@H](N)[C@@H](C)CC)C(=O)C2CC2c2cccc(F)n2)cc1 (stereo in doubt) [Example 19, (1S,2S)-2-(6-Fluoro-pyridin-2-yl)-cyclopropanecarboxylic acid ((2S,3S)-2-amino-3-methyl-pentyl)-(4-pent-1-ynyl-phenyl)-amide 2TFA] | 3 to 20 |
| CC[C@H](C)[C@H](N)CN(C(=O)[C@@H]1C[C@H]1c1ccc(F)cn1)c1ccc2cc(C3CC3)ccc2c1 [Example 20] | 3 to 20 |
| CC[C@H](C)[C@H](N)CN(C(=O)[C@@H]1C[C@H]1c1cccc(F)n1)c1ccc(-c2ccc(COC)cc2)cc1 [Example 16, Trans-2-(6-fluoro-pyridin-2-yl)-cyclopropanecarboxylic acid ((2S,3S)-2-amino-3-methyl-pentyl)-(4′-methoxymethyl-biphenyl-4-yl)-amide] | 3 to 20 |

same assay, conditions: value given as number; read-out: Range (EC50)

| SMILES | EC50 [nM] |
| --- | --- |
| CC[C@H](C)[C@H](N)CN(C(=O)[C@@H]1C[C@H]1c1ccc(F)cn1)c1ccc(OCC2CCC2)cc1 [Example 12, 2-(5-Fluoro-pyridin-2-yl)-cyclopropanecarboxylic acid ((2S,3S)-2-amino-3-methyl-pentyl)-(4-cyclobutylmethoxy-phenyl)-amide] | 20 |
| CC[C@H](C)[C@H](N)CN(C(=O)[C@@H]1C[C@H]1c1cccc(F)n1)c1ccc(-c2ccc(OC(C)C)cc2)cc1 [Example 15, Trans-2-(6-fluoro-pyridin-2-yl)-cyclopropanecarboxylic acid ((2S,3S)-2-amino-3-methyl-pentyl)-(4′-isopropoxy-biphenyl-4-yl)-amide] | 8 |

Source: patent US8426414B2, “Modulators of G protein-coupled receptor 88” (Bristol-Myers Squibb Company, priority 2009, dated 2013)
